Experimental data published in patent publication US8236761B2, “C-Met receptor regulation by angiotensin IV (AT4) receptor ligands” (Washington State University Research Foundation, priority 2006, dated 2012).
Non-standard residues stand in square brackets, D forms with d. No end group written: not given here. Nle = CCCC[C@H](N)C(=O)O

Legend:
[1] = test system: aortic ring angiogenic sprouts; assay: Ex vivo mouse aortic ring angiogenesis assay; details: 100 pM Norleual, four days, EGM-2
Description: FIG. 16 depicts inhibition of angiogenesis by Norleual (Compound 2, SEQ ID NO:43) in the mouse aortic ring assay. Rings were incubated in EGM-2 media (Cambrex) with (n=8) or without (n=6) 100 pM Norleual for four days. Digital photos of the rings were taken on day four. FIG. 16A: Quantification of aortic ring angiogenesis. Areas covered by angiogenic sprouts were quantified from day four ring photos, control (−) and Norelual treated (+) (p-value=0.012* and error bars indicate ±SEM). FIG. 16B: HUVECs were treated for 5 minutes with HGF and/or Norleual at indicated concentrations. Lysates were IP with anti-c-Met and IB with anti-c-Met or Gab1.
Aortic ring assay. 48-well plates were coated with Growth Factor Reduced Matrigel (BD Biosciences, San Jose, Calif., USA, thick gel method). Under microscopic dissection, the thoracic aorta of a 6 week-old C57 mouse was cut into 0.5 mm sections, washed in PBS, and placed in the Matrigel-coated wells. […] Photos were taken and angiogenic area was measured using Image J (Image Processing and Data Analysis in Java, available from NIH, Bethesda, Md.). […]
See Example 1 for Materials and Methods. Angiogenesis was evaluated with the ex vivo mouse aortic ring assay in the presence and absence of Norleual. […]

[2] = test system: urokinase plasminogen activator (uPA); assay: c-Met/HGF urokinase plasminogen activator (uPA) induction in MDCK cells; type: cell-based, canine; details: HGF 10 ng/ml, Norleual 10^−10 M and 10^−12 M, 48 hours
Description: Thereafter, 10 ng/ml of HGF alone and with the indicated concentrations of Norleual in a 1% FBS DMEM were added to the cells. The cells were cultured under these conditions for four days. On the fourth day, the treatment media was aspirated and replaced with 5 mg/ml of MTT reagent in 0.1 M glycine buffer (Invitrogen). The MTT reagent was incubated with the cells for four hours at 37° C. before adding DMSO to solubilize the cells and record the MTT absorbance on a plate reader. The controls were treated as background and subtracted from all of the treatments to determine the increase in proliferation due solely to HGF treatment. Differences between the treatments were determined using one-way ANOVA with Bonferroni's post-hoc analysis (Prism statistical analysis software). * indicate p<0.05 vs. HGF treatment. N=6, mean+/−SEM. […] Madin-Darby Canine Kidney (MDCK) cells were plated in the wells of a 96 well plate in 100 μl of complete Dulbecco's Modified Eagle's Medium (DMEM). The cells were serum starved for 24 hours to induce quiescence. […] Absorbance of the cleaved substrate was quantitated on a Biotek Synergy HT 2 plate reader according to the manufacturer's instructions. […] The data was analyzed with Prism® (GraphPad, San Diego, Calif.) statistical analysis software. * indicates p<0.01 vs. HGF treatment by Tukey's post-hoc analysis. […]

## Nle-Tyr-Leu-ψ-His-Pro-Phe ([Nle]YLHPF; also: reduced peptide bond psi(CH2NH2) between Leu and His) [Norleual]
[1]
  Angiogenic growth of aortic rings: significantly attenuated
[2]
  c-Met/HGF uPA induction: attenuation
